Key:
[1] = test system: Phakopsora pachyrhizi (strain containing the amino acid substitution F129L in the mitochondrial cytochrome b protein); test: Use example 1: protective control of soybean rust on soybeans (PHAKPA P2), inoculation 2 days after spraying; type: in vivo; conditions: % diseased leaf area on soybean, 16 ppm spray, inoculation 2 days after treatment, untreated controls usually >85 %
Protocol: (§1) The compound was dissolved in a mixture of acetone and/or dimethylsulfoxide and the wetting agent/emulsifier Wettol, which is based on ethoxylated alkylphenoles, in a ratio (volume) solvent-emulsifier of 99 to 1 to give a total volume of 5 ml. Subsequently, water was added to total volume of 100 ml. This stock solution was then diluted with the described solvent-emulsifier-water mixture to the final concentration given in the table below.
Use example 1. Protective control of soybean rust on soybeans caused by Phakopsora pachyrhizi (PHAKPA P2)
(§2) Leaves of potted soybean seedlings were sprayed to run-off with the previously described spray solution, containing the concentration of active ingredient or their mixture as described below. The plants were allowed to air-dry. The trial plants were cultivated for 2 days in a greenhouse chamber at 23-27° C. and a relative humidity between 60 and 80 %. Then the plants were inoculated with spores of Phakopsora pachyrhizi. The strain used contains the amino acid substitution F129L in the mitochondrial cytochrome b protein conferring resistance to Qo inhibitors. To ensure the success the artificial inoculation, the plants were transferred to a humid chamber with a relative humidity of about 95 % and 20 to 24° C. for 24 hr. The trial plants were cultivated for up to 14 days in a greenhouse chamber at 23 to 27° C. and a relative humidity between 60 and 80 %. The extent of fungal attack on the leaves was visually assessed as % diseased leaf area, the disease level of untreated controls was usually higher than 85 %.
(§3) All test results below are given for the control of phytopathogenic fungi containing the amino acid substitution F129L in the mitochondrial cytochrome b protein conferring resistance to Qo inhibitors.

[2] = test system: Phakopsora pachyrhizi (strain containing the amino acid substitution F129L in the mitochondrial cytochrome b protein); test: Use example 2: protective control of soybean rust on soybeans (PHAKPA P6), inoculation six days after spraying; type: in vivo; conditions: % diseased leaf area on soybean, 16 ppm spray, inoculation six days after treatment, untreated controls usually >85 %
Protocol: as §1
Use example 2. Protective control of soybean rust on soybeans caused by Phakopsora pachyrhizi (PHAKPA P6)
as §2, with “active ingredient as described” for “active ingredient or their mixture as described”, “cultivated for six days in” for “cultivated for 2 days in”, “% and 23 to 27°” for “% and 20 to 24°”, “23 to 27° C. for” for “20 to 24° C. for”
as §3

Row | Compound | PHAKPA Disease level (%) P2 at 16 ppm [1] | PHAKPA Disease level (%) P6 at 16 ppm [2]
1 | CO/N=C(/C(=O)OC)c1ccccc1CO/N=C(\C)C#Cc1ccccc1 [Example 1, Methyl (2E)-2-methoxyimino-2-[2-[[(E)-(1-methyl-3-phenyl-prop-2-ynylidene)amino]-oxymethyl]phenyl]acetate] | 38% | 58%
2 | CNC(=O)/C(=N/OC)c1ccccc1CO/N=C(\C)C#Cc1ccccc1 [Example 2, (2E)-2-Methoxyimino-N-methyl-2-[2-[[(E)-(1-methyl-3-phenyl-prop-2-ynylidene)-amino]oxymethyl]phenyl]acetamide] | 97% | 90%
3 | CO/N=C(/C(=O)OC)c1ccccc1CO/N=C(\C)C#Cc1ccc(Cl)cc1 [Example 3] | 70% | 70%
4 | CNC(=O)/C(=N/OC)c1ccccc1CO/N=C(\C)C#Cc1ccc(Cl)cc1 [Example 4] | 3% | 7%
5 | CNC(=O)/C(=N/OC)c1ccccc1CO/N=C(\C)C#Cc1cccc(Br)c1 [Example 5] | 1% | 7%
6 | CO/N=C(/C(=O)OC)c1ccccc1CO/N=C(\C)C#Cc1cccc(Br)c1 [Example 6] | 25% | 43%
7 | CO/N=C(/C(=O)OC)c1ccccc1CO/N=C(\C)C#Cc1ccc(F)cc1 [Example 7] | 30% | 50%
8 | CNC(=O)/C(=N/OC)c1ccccc1CO/N=C(\C)C#Cc1ccc(F)cc1 [Example 8] | 0% | 0.7%
9 | CNC(=O)/C(=N/OC)c1ccccc1CO/N=C(\C)C#Cc1ccccc1OC(F)(F)F [Example 9] | 0% | 5%
10 | CO/N=C(/C(=O)OC)c1ccccc1CO/N=C(\C)C#Cc1ccccc1OC(F)(F)F [Example 10] | 70% | 83%
11 | CNC(=O)/C(=N/OC)c1ccccc1CO/N=C(\C)C#Cc1ccc(OC(F)(F)F)cc1 [Example 11, (2E)-2-Methoxyimino-N-methyl-2-[2-[[(E)-[1-methyl-3-[4-(trifluoromethoxy)phenyl]-prop-2-ynylidene]amino]oxymethyl]phenyl]acetamide] | 53% | 67%
12 | CO/N=C(/C(=O)OC)c1ccccc1CO/N=C(\C)C#Cc1ccc(OC(F)(F)F)cc1 [Example 12, methyl(2E)-2-methoxyimino-2-[2-[[(E)-[1-methyl-3-[4-(trifluoromethoxy)phenyl]prop-2-ynylidene]amino]oxymethyl]phenyl]acetate] | 93% | 100%
13 | CNC(=O)/C(=N/OC)c1cccc(C)c1CO/N=C(\C)C#Cc1ccccc1 [Example 16, (2E)-2-Methoxyimino-N-methyl-2-[3-methyl-2-[[(E)-(1-methyl-3-phenyl-prop-2-ynylidene)amino]oxymethyl]phenyl]acetamide] | 0% | 0%
14 | CNC(=O)/C(=N/OC)c1cccc(C)c1CO/N=C(\C)C#Cc1ccc(C)cc1 [Example 19] | 0% | 0.6%
15 | CO/N=C(/C(=O)OC)c1cccc(C)c1CO/N=C(\C)C#Cc1ccc(C)cc1 [Example 20] | 2% | 1%
